According to patent publication US6310056A, “Carbapenem derivatives” (Meiji Seika Kaisha, Ltd., priority 1997, dated 2001):
Values after ≈ are worked out from the molar mass of the structure shown. Counter-ions that a name gives are not always drawn.

Key:
[1] = Stability against DHP-I, porcine; format: in vitro ADME; conditions: pig, renal dehydropeptidase i, pH 7, 100 μg (titer)/ml, 37° C., HPLC, read-out: residual amount after 3 hours
Experimental: (§1) The stabilities of the compounds according to the present invention against porcine and mouse renal dehydropeptidases were measured by the following method.
(§2) Kidney acetone powder, Porcine Type II(Sigma; Lot. 33H7225; 1.5 g) was suspended in a 50 mM Tris.HCl buffer (pH 7.0) containing 20% butanol, and the mixture was stirred at 5° C. for 48 hours. Dialysis (Cellulose tube 30/32; Viskase Sales Corp) was conducted with a 50 mM Tris.HCl buffer (pH 7.0) in order to remove butanol to a level of no smell of butanol. The dialysate was centrifuged at 10000×g (KUBOTA 6800) for 20 minutes to give a supernatant as a partly purified DHP-I, which was divided into portions and stored at -80° C. Also, a partly purified DHP-I was prepared from 1.5 g of Mouse (Lot. 23F8105), and stored in the same manner as above.
(§3) The compounds according to the present invention as a basic pharmaceutical was diluted with sterile purified water to prepare a solution having a titer of 2000 μg/ml. The solution of the compound according to the present invention having a titer of 2000 μg/ml was added to the partly purified DHP-I's of the above described animals so as to have a final concentration of 100 μg (titer)/ml. As a blank, 50 mM Tris.HCl buffer (pH 7.0) was used in place of the partly purified DHP-I's of the animals. After reaction at 37° C. for 3 hours, a portion of the reaction mixture was taken out, diluted with the same amount of methanol to stop the reaction by cooling in ice. The reaction mixture was filtered through SUNPLEP LCR13-LH, MILLIPORE), and subjected to HPLC (column: CAPCELL PACK C18 SG120, SHISEIDO; UV detector; mobile phase: acetonitrile--10 mM aqueous acetic acid solution) to measure the residual amount (%) of […] according to the following equation. [formula]

[2] = Stability against DHP-I, mouse; format: in vitro ADME; conditions: renal dehydropeptidase i, pH 7, 100 μg (titer)/ml, 37° C., HPLC, read-out: residual amount after 3 hours
Experimental: as §1, §2, §3

[3] = test system: B. catarrhalis W-0506; assay: Anti-microbial activities (MIC); format: cell-based; conditions: Moraxella catarrhalis, W0506, Sensitivity Disk agar-N+5% Horse blood, 10^6 CFU/ml, read-out: minimum inhibiting concentration (MIC)
Experimental: (§4) The minimum inhibiting concentrations (MIC, […]) of the compounds according to the present invention to various pathogenic bacteria was measured in accordance with the method described in CHEMOTHERAPY, vol. 16, No. 1, 99, 1968. The culture medium for measurement was Sensitivity Disk agar-N+5% Horse blood, and the amount of inoculants was 10^6 CFU/ml.

[4] = test system: C. freundii GN346; assay: Anti-microbial activities (MIC); format: cell-based; conditions: Citrobacter freundii, Sensitivity Disk agar-N+5% Horse blood, 10^6 CFU/ml, read-out: minimum inhibiting concentration (MIC)
Experimental: as §4

[5] = test system: E. coli NIHJ JC-2; assay: Anti-microbial activities (MIC); format: cell-based; conditions: Escherichia coli, NIHJJC2, Sensitivity Disk agar-N+5% Horse blood, 10^6 CFU/ml, read-out: minimum inhibiting concentration (MIC)
Experimental: as §4

[6] = test system: E. faecalis W-73; assay: Anti-microbial activities (MIC); format: cell-based; conditions: Enterococcus faecalis, W73, Sensitivity Disk agar-N+5% Horse blood, 10^6 CFU/ml, read-out: minimum inhibiting concentration (MIC)
Experimental: as §4

[7] = test system: E. hirae ATCC8043; assay: Anti-microbial activities (MIC); format: cell-based; conditions: Enterococcus hirae, Sensitivity Disk agar-N+5% Horse blood, 10^6 CFU/ml, read-out: minimum inhibiting concentration (MIC)
Experimental: as §4

[8] = test system: H. influenzae PRC2; assay: Anti-microbial activities (MIC); format: cell-based; conditions: Haemophilus influenzae, Sensitivity Disk agar-N+5% Horse blood, 10^6 CFU/ml, read-out: minimum inhibiting concentration (MIC)
Experimental: as §4

[9] = test system: H. influenzae PRC44; assay: Anti-microbial activities (MIC); format: cell-based; conditions: Haemophilus influenzae, Sensitivity Disk agar-N+5% Horse blood, 10^6 CFU/ml, read-out: minimum inhibiting concentration (MIC)
Experimental: as §4

[10] = test system: K. pneumoniae PCI602; assay: Anti-microbial activities (MIC); format: cell-based; conditions: Klebsiella pneumoniae, Sensitivity Disk agar-N+5% Horse blood, 10^6 CFU/ml, read-out: minimum inhibiting concentration (MIC)
Experimental: as §4

[11] = test system: P. vulgaris GN7919; assay: Anti-microbial activities (MIC); format: cell-based; conditions: Proteus vulgaris, Sensitivity Disk agar-N+5% Horse blood, 10^6 CFU/ml, read-out: minimum inhibiting concentration (MIC)
Experimental: as §4

[12] = test system: S. aureus 209P JC-1; assay: Anti-microbial activities (MIC); format: cell-based; conditions: Staphylococcus aureus, Sensitivity Disk agar-N+5% Horse blood, 10^6 CFU/ml, read-out: minimum inhibiting concentration (MIC)
Experimental: as §4

[13] = test system: S. epidermidis ATCC14990; assay: Anti-microbial activities (MIC); format: cell-based; conditions: Staphylococcus epidermidis, Sensitivity Disk agar-N+5% Horse blood, 10^6 CFU/ml, read-out: minimum inhibiting concentration (MIC)
Experimental: as §4

[14] = test system: S. aureus M126 (methicillin-hyper resistant strain, MRSA); assay: Anti-microbial activities (MIC); format: cell-based; conditions: Staphylococcus aureus, Sensitivity Disk agar-N+5% Horse blood, 10^6 CFU/ml, read-out: minimum inhibiting concentration (MIC)
Experimental: as §4
*: methicillin-hyper resistant strain (MRSA);

[15] = test system: S. pneumoniae PRC9 (penicillin-hyper resistant strain, PRSP); assay: Anti-microbial activities (MIC); format: cell-based; conditions: Streptococcus pneumoniae, Sensitivity Disk agar-N+5% Horse blood, 10^6 CFU/ml, read-out: minimum inhibiting concentration (MIC)
Experimental: as §4
**: penicillin-hyper resistant strain (PRSP);

[16] = Acute toxicity test; format: in vivo, mice (ICR, male); conditions: intravenous, 2000 mg/kg, mice, n=3
Experimental: The compound of Example 1 was administered intravenously to mice (ICR, male, n =3) in an amount of 2000 mg/kg.

Row | Structure (SMILES) | remaining at 3 h [1] [%] | remaining at 3 h [2] [%] | MIC [3] [µg/mL] | MIC [4] [µg/mL] | MIC [5] [µg/mL] | MIC [6] [µg/mL] | MIC [7] [µg/mL] | MIC [8] [µg/mL] | MIC [9] [µg/mL] | MIC [10] [µg/mL] | MIC [11] [µg/mL] | MIC [12] [µg/mL] | MIC [13] [µg/mL] | MIC [14] [µg/mL] | MIC [15] [µg/mL] | survival (acute toxicity) [16]
1 | C[C@@H](O)[C@H]1C(=O)N2C(C(=O)O)=C(S[C@@H]3CN[C@H](C(=O)N(C)C)C3)[C@H](C)[C@H]12 [C, meropenem, reference compound] | 72 | 18 |  |  |  |  |  |  |  |  |  |  |  |  |  | 
2 | C[C@@H](O)[C@H]1C(=O)N2C(C(=O)O)=C(SCCN=CN)C[C@H]12 [Compound A, imipenem, reference compound] | 0.6 | 24 | < 0.025 | 0.2 (≈ 0.668 µM) | 0.1 (≈ 0.334 µM) | 0.78 (≈ 2.61 µM) | 0.78 (≈ 2.61 µM) | 0.78 (≈ 2.61 µM) | 12.5 (≈ 41.8 µM) | 0.2 (≈ 0.668 µM) | 0.1 (≈ 0.334 µM) | < 0.025 | < 0.025 | 25 (≈ 83.5 µM) | 0.2 (≈ 0.668 µM) | 
3 | C[C@@H](O)[C@H]1C(=O)N2C(C(=O)O)=C(S[C@@H]3CN[C@H](Cc4cn5c[n+](C)cc5s4)C3)[C@H](C)[C@H]12 [Compound B, (1R,5S,6S)-6-((1R)-1-hydroxyethyl)-1-methyl-2-[(3S,5S)-5-(6-methylimidazo[5,1-b]thiazolium-2-yl)methylpyrrolidin-3-yl]thiocarbapen-2-em-3-carboxylic acid iodide, reference compound] |  |  | < 0.025 | 0.1 | 0.05 | 3.13 | 1.56 | 0.1 | 0.78 | 0.1 | 0.1 | < 0.025 | 0.05 | 6.25 | 0.39 | 
4 | C[C@@H](O)[C@H]1C(=O)N2C(C(=O)O)=C(c3cn4cncc4s3)[C@H](C)[C@H]12 [Example 1, (1S,5R,6S)-6-((1R)-1-hydroxyethyl)-2-(imidazo[5,1-b]thiazol-2-yl)-1-methyl-1-carbapen-2-em-3-carboxylic Acid] | 87 | < 2.9 | < 0.025 | 1.56 (≈ 4.68 µM) | 0.1 (≈ 0.3 µM) | 0.2 (≈ 0.6 µM) | 0.39 (≈ 1.17 µM) | < 0.025 | 0.39 (≈ 1.17 µM) | 0.1 (≈ 0.3 µM) | 0.05 (≈ 0.15 µM) | < 0.025 | < 0.025 | 3.13 (≈ 9.39 µM) | 0.1 (≈ 0.3 µM) | all of the animals were survived
5 | C[C@@H](O)[C@H]1C(=O)N2C(C(=O)[O-])=C(c3cn4c[n+](C)cc4s3)[C@H](C)[C@H]12 [Example 4, (1S,5R,6S)-6-((1R)-1-hydroxyethyl)-1-methyl-2-(6-methylimidazo[5,1-b]thiazolium-2-yl)-1-carbapen-2-em-3-carboxylate (inner salt)] | 100 | 94 | < 0.025 | 0.1 | < 0.025 | 0.1 | 0.78 | 0.05 | 0.39 | 0.05 | 0.1 | < 0.025 | < 0.025 | 3.13 | 0.05 | 
6 | C[C@@H](O)[C@H]1C(=O)N2C(C(=O)O)=C(c3cn4cncc4s3)C[C@H]12 [Example 8, (5R,6S)-6-((1R)-1-hydroxyethyl)-2-(imidazo[5,1-b]thiazol-2-yl)-1-carbapen-2-em-3-carboxylic Acid] | 60 | < 0.2 | < 0.025 | 0.2 (≈ 0.626 µM) | 0.1 (≈ 0.313 µM) | 0.39 (≈ 1.22 µM) | 0.78 (≈ 2.44 µM) | 0.05 (≈ 0.157 µM) | 0.78 (≈ 2.44 µM) | 0.05 (≈ 0.157 µM) | 0.1 (≈ 0.313 µM) | < 0.025 | 0.05 (≈ 0.157 µM) | 6.25 (≈ 19.6 µM) | 0.2 (≈ 0.626 µM) | 
